Results published in ChEMBL document CHEMBL1125973, “Tricyclic quinoxalines as ligands for the strychnine-insensitive glycine site” (Bioorg Med Chem Lett, 1991).

Key:
[1] = molecular target: Glutamate receptor ionotropic, NMDA 1 (Rattus norvegicus, UniProt P35439); assay: Compound was evaluated for its binding affinity towards strychnine - insensitive glycine site of NMDA receptor in presence of [3H]- Gly
[2] = molecular target: Glutamate receptor ionotropic AMPA (Homo sapiens, UniProt P42261+P42262+P42263+P48058); assay: Compound was evaluated for its binding affinity towards Ionotropic glutamate receptor AMPA in presence of [3H]- AMPA; format: protein-complex assay

Compound	IC50 [1] [µM]	IC50 [2] [µM]
Oc1nc2cc(Cl)c(Cl)cc2n2nnnc12	77	> 100
CCCCn1c(=O)c(=O)[nH]c2cc(Cl)c(Cl)cc21	> 100	–
CCn1c(=O)c(=O)[nH]c2cc(Cl)c(Cl)cc21	96	21
O=c1[nH]c2ccccc2n2nnnc12	> 100	–
O=c1[nH]c2ccccc2n2ccnc12	> 100	–

These reach a lower IC50 [1]. Values come first.

IC50 [1] [µM]	IC50 [2] [µM]	Compound
7	8	Oc1nc2cc(Cl)c(Cl)cc2n2cnnc12
6	7	Oc1nc2cc(Cl)c(Cl)cc2n2ccnc12
17	36	Cn1c(=O)c(=O)[nH]c2cc(Cl)c(Cl)cc21
4	27	Oc1nc2cc(Cl)c(Cl)cc2nc1O [2,3-DIHYDROXY-6,7-DICHLOROQUINOXALINE]
